Data reported in US6479482B2, “Alkylamine derivatives of dihydropyridine NPY antagonists” (Bristol-Myers Squibb Company, priority 2000, dated 2002).

What was measured:
[1] = system: NPY-induced Ca^++ entry in HEL cells; settings: cited from earlier work
[2] = biological target: T1, I-125 Bolton-Hunter labeled NPY in human neuroblastoma cells (SK-N-MC) (Homo sapiens, UniProt P25929); settings: cited from earlier work
T1 construct: displaces I-125 Bolton-Hunter labeled NPY in human neuroblastoma cells (SK-N-MC); endogenous in cells; host or cells: SK-N-MC human neuroblastoma cells
T1 sequence (P25929 1-384): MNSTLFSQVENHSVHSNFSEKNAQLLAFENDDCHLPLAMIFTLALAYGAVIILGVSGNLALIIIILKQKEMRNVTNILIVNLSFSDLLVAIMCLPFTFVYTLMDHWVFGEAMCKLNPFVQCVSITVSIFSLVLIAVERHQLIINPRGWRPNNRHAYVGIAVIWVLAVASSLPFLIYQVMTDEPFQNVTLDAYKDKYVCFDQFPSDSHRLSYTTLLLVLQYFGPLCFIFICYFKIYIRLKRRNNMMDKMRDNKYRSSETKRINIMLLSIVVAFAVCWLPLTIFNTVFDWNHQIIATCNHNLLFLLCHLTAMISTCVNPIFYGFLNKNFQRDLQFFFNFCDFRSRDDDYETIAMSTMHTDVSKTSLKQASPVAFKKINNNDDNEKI

[3] = system: NPY-induced increase in intracellular Ca^++ in SK-N-MC cells; settings: cited from earlier work
[4] = system: NPY-induced pressor response; settings: pithed rat; cited from earlier work
[5] = system: NPY-induced contractions in guinea pig basilar artery; settings: cited from earlier work
[6] = biological target: T2, I-125 labeled NPY and PYY in human neuroblastoma cells (Homo sapiens, UniProt P25929); settings: cited from earlier work
T2 construct: displacing I-125 labeled NPY and PYY in human neuroblastoma cells; endogenous in cells
T2 sequence (P25929 1-384): T1 sequence (P25929 1-384)

[7] = system: NPY-related increases in diastolic blood pressure; settings: anesthetized guinea pig; cited from earlier work

Row | SMILES | melting point | further results
1 | COC(=O)C1=C(C)NC(C)=C(C(=O)OC)C1c1cccc(NC(=O)NCCCN2CCN(CC(C)C)CC2)c1.Cl.Cl | 165 to 170 °C | –
2 | N=C(NCCCc1cnc[nH]1)NCCC(c1cc(F)cc(F)c1)c1ccccn1 (stereo not shown) [He 90481] | – | pA2, antagonism of NPY-induced Ca++ entry [1]: 4.43
3 | COC(=O)C1=C(C)NC(C)=C(C(=O)OC)C1c1cccc(NC(=O)NCCCN2CCN(C(C)(C)C)CC2)c1.Cl.Cl | 175 to 180 °C | –
4 | COC(=O)C1=C(C)NC(C)=C(C(=O)OC)C1c1ccc(F)c(NC(=O)NCCCN2CCC(C)CC2)c1 [Example 17, 4-[4-Fluoro-3-[[[[3-(4-methyl-1-piperidinyl)propyl]amino]carbonyl]-amino]phenyl]-1,4-dihydro-2,6-dimethyl-3,5-pyridinedicarboxylic acid, dimethyl ester] | 188 to 190 °C | –
5 | COC(=O)C1=C(C)NC(C)=C(C(=O)OC)C1c1ccc(F)c(NC(=O)NCCCN2CCC(C(C)C)CC2)c1 [Example 20, 4-[4-Fluoro-3-[[[[3-[4-(1-methylethyl)-1-piperidinyl]propyl]amino]-carbonyl]amino]phenyl]-1,4-dihydro-2,6-dimethyl-3,5-pyridinedicarboxylic acid, dimethyl ester] | 176 to 179 °C | –
6 | COC(=O)C1=C(C)NC(C)=C(C(=O)OC)C1c1cccc(NC(=O)NCCCN2CCN(C(C)C)CC2)c1.Cl.Cl | 170 to 180 °C | –
7 | COC(=O)C1=C(C)NC(C)=C(C(=O)OC)C1c1cccc(NC(=O)NCCCN2CCN(C3CCCC3)CC2)c1.Cl.Cl | 195 to 200 °C | –
8 | COC(=O)C1=C(C)NC(C)=C(C(=O)OC)C1c1cccc(NC(=O)NCCCN2CCC3(CC2)OCCO3)c1 [Example 14, 4-[3-[[[[3-(1,4-Dioxa-8-azaspiro[4.5]decan-8-yl)propyl]amino]carbonyl]-amino]phenyl]-1,4-dihydro-2,6-dimethyl-3,5-pyridinedicarboxylic acid, dimethyl ester] | 100 to 105 °C | –
9 | CCCCN1CCN(CCCNC(=O)Nc2cccc(C3C(C(=O)OC)=C(C)NC(C)=C3C(=O)OC)c2)CC1.Cl.Cl | 145 to 150 °C | –
10 | CCN1CCN(CCCNC(=O)Nc2cccc(C3C(C(=O)OC)=C(C)NC(C)=C3C(=O)OC)c2)CC1.Cl.Cl | 120 to 125 °C | –
11 | COC(=O)C1=C(C)NC(C)=C(C(=O)OC)C1c1cccc(NC(=O)NCCCN2CCNCC2)c1.Cl.Cl | 120 to 130 °C | –
12 | COC(=O)C1=C(C)NC(C)=C(C(=O)OC)C1c1cccc(NC(=O)NCCCN2CCC(=O)CC2)c1.Cl | 70 to 75 °C | –
13 | COC(=O)C1=C(C)NC(C)=C(C(=O)OC)C1c1cccc(NC(=O)NCCCN2CCN(C(=O)OC(C)(C)C)CC2)c1 [Example 13, 4-[3-[[[[3-[4-[(1,1-Dimethylethoxy)carbonyl]-1-piperazinyl]propyl]amino]-carbonyl]amino]phenyl]-1,4-dihydro-2,6-dimethyl-3,5-pyridinedicarboxylic acid, dimethyl ester] | 125 to 130 °C | –
14 | NC(N)=NCCC[C@@H](NC(=O)C(c1ccccc1)c1ccccc1)C(=O)NCc1ccc(O)cc1 [BIBP 3226] | – | displacement of I-125 Bolton-Hunter labeled NPY [2]: displaces; antagonism of NPY-induced increase in intracellular Ca++ [3]: antagonized; antagonism of NPY-induced pressor response [4]: antagonizing
15 | COC(=O)C1=C(C)NC(C)=C(C(=O)OC)C1c1cccc(NC(=O)NCCCN2CCN(CC3CC3)CC2)c1.Cl.Cl | 145 to 150 °C | –
16 | O=P(O)(O)OC1[C@H](OP(=O)(O)O)[C@H](O)C(O)[C@H](O)[C@H]1OP(=O)(O)O (stereo partly drawn) [D-Myo-inositol-1,2,6-triphosphate] | – | antagonism of NPY-induced contractions [5]: potent but non-competitive antagonist
17 | COC(=O)C1=C(C)NC(C)=C(C(=O)OC)C1c1ccc(F)c(NC(=O)NCCCN2CCC(C(C)(C)C)CC2)c1 [Example 21, 4-[4-Fluoro-3-[[[[3-[4-(1,1-dimethylethyl)-1-piperidinyl]propyl]amino]-carbonyl]amino]phenyl]-1,4-dihydro-2,6-dimethyl-3,5-pyridinedicarboxylic acid, dimethyl ester] | 191 to 193 °C | –
18 | CCCN1CCN(CCCNC(=O)Nc2cccc(C3C(C(=O)OC)=C(C)NC(C)=C3C(=O)OC)c2)CC1.Cl.Cl | 190 to 200 °C | –
19 | CN(C)CC1CCC(CN=C(N)c2ccc(C[C@@H](NC(=O)[C@@H](Cc3ccccc3)NS(=O)(=O)c3ccc4ccccc4c3)C(=O)N3CCCC3)cc2)CC1 (stereo partly shown) [SR 120819A] | – | displacement of I-125 labeled NPY and PYY [6]: displacing; antagonism of NPY-related increases in diastolic blood pressure [7]: antagonized
